One compound from patent US7910324B2, “Method of screening for compounds which affect the processing of EphA4 by γ-secretase” (priority 2007, dated 2011) can be followed below.

Assay [1] relates to γ-secretase cleavage of rat EphA4 with HA tag in HEK293 cells. The assay can be described thus: EphA4 processing in EphA4-HA transfected 293/EBNA-1 cells, Western blot with anti-HA antibody. The assay is classed as cell-based. The settings on record: Compound E 50 nM, one day, EphA4-HA transfected 293/EBNA-1 (HEK293) cells. How it is done: Whether or not EphA4 is a substrate for γ-secretase was evaluated using HEK293 cells expressing EphA4 with an HA tag added to its C-terminus, in the presence of a γ-secretase inhibitor. As the γ-secretase inhibitor, (2S)-2-{[(3,5-difluorophenyl)acetyl]amino}-N-[(3S)-1-methyl-2-oxo-5-phenyl-2,3-dihydro-1H-1,4-benzodiazepin-3-yl]propanamide (hereinafter, sometimes referred to as “Compound E”) (Alexis Biochemicals) was used.
293/EBNA-1 cell strain (Invitrogen) was cultured in 10% FBS (Hyclone)/DMEM (Invitrogen) under 5% CO2 at 37° C., followed by transfection thereinto of a gene encoding rat EphA4 with an HA tag added to its C-terminus with Lipofectamine 2000 (Invitrogen). After one day culture under the same conditions, Compound E (γ-secretase inhibitor, Alexis Biochemicals) was added to the medium (final concentration: 50 nM). Cells were cultured for another day under the same conditions. Then, the transfected HEK293 cells were collected with PBS (Sigma) and sonicated with a sonicator (Taitec VP-5S) to disrupt cells. Then, the quantity of protein was determined with Protein Assay Kit (BioRad). Samples (2 μg each) were taken from proteins obtained from Compound E-added cells and Compound E-not added cells, respectively, and subjected to SDS-PAGE, followed by Western blotting with an anti-HA antibody (Roche) (final concentration: 0.2 μg/ml). […]

Assay [2] relates to γ-secretase cleavage of EphA4 in rat hippocampal neurons. The assay can be described thus: EphA4 processing in primary culture of rat hippocampal neurons, Western blot with anti-EphA4 antibody. In kind it is cell-based. The following applies: Compound E 50 nM, one week. The method, then: Whether or not EphA4 is a substrate for γ-secretase was evaluated using a primary culture of rat hippocampal neurons in the presence of a γ-secretase inhibitor. As the γ-secretase inhibitor, (2S)-2-{[(3,5-difluorophenyl)acetyl]amino}-N-[(3S)-1-methyl-2-oxo-5-phenyl-2,3-dihydro-1H-1,4-benzodiazepin-3-yl]propanamide (Compound E) (Alexis Biochemicals) was used.
The hippocampus was isolated from embryonic day 18 SD rats (Charles River) and subjected to culture. Specifically, embryos were removed aseptically from pregnant rats under etherization. The brain was removed from each embryo and dipped in 20% FBS (Hyclone)/HBSS (Sigma). The hippocampus was collected from the thus obtained brain under a stereomicroscope. The collected hippocampus was treated in an enzyme solution containing 0.25% trypsin (Invitrogen) and 0.5 mg/ml DNase (Sigma) at 37° C. for 10 minutes to disperse cells. This enzyme reaction was terminated by adding 20% FBS (Hyclone)/HBSS (Sigma). Then, 2 ml of HBSS (Sigma) was added to the resultant cells. The HBSS-added cell mass was re-dispersed by gentle pipetting. The resultant neuron suspension was diluted with a medium and plated in 10 cm dishes at an initial cell density of 1.5×10^6 cells/dish. […] Then, cells were collected with PBS and subjected to quantitative determination of protein. […]
In general terms: In western blotting, separated proteins are transferred to a membrane and probed.

Regarding `C[C@H](NC(=O)Cc1cc(F)cc(F)c1)C(=O)N[C@H]1N=C(c2ccccc2)c2ccccc2N(C)C1=O` [Compound E, (2S)-2-{[(3,5-difluorophenyl)acetyl]amino}-N-[(3S)-1-methyl-2-oxo-5-phenyl-2,3-dihydro-1H-1,4-benzodiazepin-3-yl]propanamide], the “accumulation of EphA4 CTF band around 50 kDa (EphA4 undegraded product)” value in assay [1] is recorded as “a band around 50 kDa (CTF) was accumulated specifically”. The “accumulation of EphA4 CTF band around 50 kDa” value in assay [2] is given as “a band around 50 kDa (CTF) was accumulated specifically”.
